Measurements taken from patent US7964598B2 (The J. David Gladstone Institutes, priority 1995, dated 2011).
Where “and” joins values, the source holds several entries; their conditions need not be identical. Equal entries are not always repeated.

Key:
B103-APP cells = assay: APP processing and Aβ production, B103-APP cells; type: cell-based, rat; conditions: lipid-free apoE, 7.5 μg/ml, 24 h, compared to medium alone
Method: Aβ production assay. Stable neuroblastoma B103 cell lines transfected with a wildtype hAPP cDNA construct (B 103-APP) were selected by growing them in Dulbecco's modified Eagle's medium (DMEM) containing 10% fetal calf serum (FBS) and 400 μg/ml G418. A cell line expressing APP at similar levels in mouse brains has been identified by RNase protection assay (RPA) and was used in the studies described below. To determine Aβ production, B103-APP cells were incubated with serum-free minimal essential medium (MEM) containing N2 supplements with or without apoE isoforms for 24 h at 37° C. After incubation, 50 μl of medium was collected and assayed for Aβ levels with an ELISA method. The cells were lysed, and cellular proteins were determined by the Lowry method. AP production was normalized to cellular protein.
Cell Culture. Rat neuroblastoma B103 cells stably expressing human wildtype APP (hAPP695wt) (Xu et al. ((1999) Proc. Natl. Acad. Sci. USA 96:7547-7552; Esposito, et al. (2004) J. Neurochem. 91:1260-1274) were generated in Dr. Lennart Mucke's laboratory at the Gladstone Institute of Neurological Disease and maintained in Dulbecco's modified Eagle's medium (DMEM) (GIBCO, Grand Island, N.Y.) containing 400 μg/ml G418, 10% fetal bovine serum, and 5% horse serum at 37° C. Twenty-four hours after plating into 48-well plates (1×10^5 cells per well), cells were washed twice with serum-free DMEM and cultured for another 24 h in DMEM containing 1% N-2 supplement (GIBCO) to induce differentiation. The cells were treated with either β-VLDL (25 μg/ml cholesterol), recombinant human apoE isoform-enriched β-VLDL (7.5 μg/ml apoE and 25 μg/ml cholesterol), or recombinant human apoE (7.5 μg/ml apoE) in fresh DMEM containing 1% N-2 supplement for an additional 24 h. In some experiments, RAP (25 nM or 1 μM) was added to the cells 1 h before apoE treatment.
In some experiments, cells were treated with lovastatin, as described but with a minor modification. Fassbender et al. (2001) Proc. Natl. Acad. Sci. USA 98:5856-5861. Briefly, cells were maintained in differentiation medium containing 4 μM lovastatin and 0.25 mM mevalonate for 24 h. After treatment for 5 min with 5 mM methyl-β-cyclodextrin, which depletes cell membrane cholesterol (Bodovitz and Klein (1996) J. Biol. Chem. 271:4436-4440; Kojro et al. (2001) Proc. Natl. Acad. Sci. USA 98:5815-5820), the cells were incubated in fresh differentiation medium containing lovastatin and mevalonate for 24 h. The conditioned medium was collected, and cellular cholesterol extracted with chloroform/methanol (Huang et al. (1994) Proc. Natl. Acad. Sci. USA 91:1834-1838) and quantitated with a kit from Abbott Laboratories (Abbott Park, Ill.).
Detection of sAPPα. Media conditioned for 24 hours were normalized by protein content and subjected to SDS/PAGE. Proteins were then transferred onto nitrocellulose membranes. The sAPPα was detected by mAb 6E10 and visualized with an enhanced chemiluminescence system (Pierce, Rockford, Ill.).
Aβ Assay. Aβ secreted into the medium was detected with a sandwich enzyme-linked immunosorbent assay (ELISA), using mAb 266 as a capturing antibody and 3D6 as a detecting antibody, as described. Johnson-Wood et al. ((1997) Proc. Natl. Acad. Sci. USA 94:1550-1555). Aβ was quantified from a standard curve (Aβ42; Bachem, Torrance, Calif.) and normalized by total cellular protein.

B103-neo cells = assay: Cell association and degradation of 125I-Aβ40 by B103-neo cells; type: cell-based, rat; conditions: 125I-Aβ1-40 350 pg/ml with apoE, 24-h incubation
Method: Cell Association and Degradation of ^125I-Aβ40 by Neo-transfected B103 Cells. […] Culture medium was collected after 24 h, and the degradation products of ^125I-Aβ40 in the medium were assayed as described. Goldstein et al al. ((1983) Methods Enzymol. 98:241-250). The cells were washed five times on ice with phosphate-buffered saline (PBS) containing 0.2% bovine serum albumin and once with PBS and lysed by 0.1 N NaOH. The cell-associated ^125I-Aβ40 was determined by counting the radioactivity in the cell lysate.
The cell association and degradation of Aβ were measured after a 24-h incubation, as described in Methods, above.

Neuro-2a cells = assay: Metabolism of apoE-enriched β-VLDL by Neuro-2a cells; type: cell-based, mouse; conditions: for enhancement of cell association of β-VLDL: 125I-β-VLDL enriched with apoE; for cell association: purified 125I-apoE-enriched β-VLDL; for increase of cellular cholesterol content: β-VLDL enriched with apoE, compared with β-VLDL alone
Method: Rabbit β-VLDL (d<1.006 g/ml) were isolated from the plasma of New Zealand White rabbits fed a high-fat, high-cholesterol diet for 4 days. The ratio of cholesterol to protein in this β-VLDL ranged from ˜15 to 20:1. Human apoE-enriched β-VLDL were prepared by incubating apoE with β-VLDL at 37° C. for 1 h. For some experiments, the apoE-enriched β-VLDL were reisolated by fast-performance liquid chromatography as follows. Either ^125I-β-VLDL and unlabeled apoE or ^125I-apoE and unlabeled β-VLDL were mixed in a 1:1.5 ratio of β-VLDL protein to apoE and incubated at 37° C. for 1 h. The mixture (250 μl) was then fractionated by chromatography on a Superose 6 column (Pharmacia Fine Chemicals, Uppsala, Sweden, 10/50 HR). The flow rate was 0.5 ml/min, and 0.5 ml fractions were collected. The elution profile was monitored by quantitation of ^125I and cholesterol.
Cultured cells were grown to ˜100% confluence, washed twice with fresh serum-free medium, and incubated at 37° C. with apoE-enriched β-VLDL. Before addition to the cells, the β-VLDL and apoE were incubated together (5 and 7.5 μg of protein, respectively, unless otherwise indicated) for 1 h at 37° C. Some cells were incubated with 50 μM chloroquine, and inhibitor of lysosomal protease, at 37° C. for 2 h before addition of the apoE-enriched β-VLDL. At the times indicated, the cells were placed on ice, and the medium was assayed for protein degradation products. For the cell association studies, Neuro-2a cells were washed five times on ice with 0.1 M PBS containing 0.2% bovine serum albumin and once with 0.1 M PBS. Cell-associated ligand represents both bound and internalized material. The fibroblasts were washed three times with DMEM-Hepes on ice and incubated with 10 mM suramin at 4° C. for 30 min to remove surface-bound ligand. The radioactivity remaining within the cells represents that which was “internalized.” After washing, the cells were dissolved in 0.1 N NaOH for measurement of radioactivity and protein concentration.
The cells were then washed and solubilized with 0.1 N NaOH, and the cell-associated DiI, which is proportional to the total amount of lipoprotein metabolized (bound, internalized, and degraded), was assayed.

Substance	increase of Aβ production (B103-APP cells)	Cell association of 125I-Aβ1-40 (B103-neo cells) [fmol/mg cell protein]	Degradation of 125I-Aβ1-40 (B103-neo cells) [fmol/mg cell protein]	enhancement of cell association of β-VLDL (Neuro-2a cells) [fold]	cell association (Neuro-2a cells; 2 h)	cell association (Neuro-2a cells; 4 h)	increase of cellular cholesterol content (Neuro-2a cells) [fold]
apoE3: human apolipoprotein E3 isoform, also iodinated	30%	10.8 ± 2.5	88.0 ± 6.7	~1.7	58 ng/mg of cell protein	101 ng/mg of cell protein	~1.5
apoE4: human apolipoprotein E4 isoform, also iodinated	~70% and ~60%	14.7 ± 2.5	80.8 ± 22.9	~1.7	39 ng/mg of cell protein	65 ng/mg of cell protein	~1.7
